Biological target: recombinant human DPP-4 (Homo sapiens, UniProt P27487)
Assay: recombinant human DPP-4 fluorogenic substrate cleavage assay
Type: biochemical
Conditions: compound 10 uM, substrate (H-Ala-Pro)-2-Rh110 10 μM, 1 hour pre-incubation, room temperature; for inhibition at 10 µM: read-out: % Inhib at 10 uM
Protocol: For compound screening, the assay employed measures the activity of recombinant human DPP-4 to cleave the synthetic fluorogenic substrate (H-Ala-Pro)-2—Rh110. The reaction is run in 384-well plates. Compound solutions in assay buffer are pre-incubated with the human recombinant DPP-4 and the reaction is initiated by the addition of the substrate. The product of the reaction is quantified by measuring the fluorescence intensity using Tecan Ultraplate reader. For each compound concentration tested, the percent of inhibition is calculated.
For the determination of IC50 and/or % of inhibition values, the assay is performed at room temperature in 384-well plates using a TECAN Ultra plate reader. Total assay volume is 30 μl. Test compounds are dissolved in 90% (v/v) DMSO/water and diluted in water containing 0.05% (w/v) CHAPS to 3-times the desired assay concentration. For the assay, 10 μl water/CHAPS (±test compound) are added per well, followed by the addition of 10 μl hDPP4 solution (diluted with 1.5× assay buffer, i.e. 37.5 mM Tris/HCl, pH 7.4, 210 mM NaCl, 15 mM KCl, and 0.05% (w/v) CHAPS). The final assay concentrations are […] for hDPP4 according to the enzyme concentrations determined by the Bradford method. After 1 hour of pre-incubation at room temperature, the reaction is started by the addition of 10 μl substrate solution (substrate dilutes in 1.5× assay buffer, final substrate concentration is 10 μM). The effect of the compound on the enzymatic activity is obtained from the linear progression curves and determined from two readings, the first one taken directly after the addition of substrate (t=0 min) and the second one after 1 hour (t=60 min). The apparent inhibition constant, IC50, is calculated from the plot of percentage of inhibition vs. inhibitor concentration using non-linear regression analysis software (XLfit, Vers. 4.0; ID Business Solution Ltd., Guildford, Surrey, UK).

Chain of recombinant human DPP-4 (P27487 whole entry): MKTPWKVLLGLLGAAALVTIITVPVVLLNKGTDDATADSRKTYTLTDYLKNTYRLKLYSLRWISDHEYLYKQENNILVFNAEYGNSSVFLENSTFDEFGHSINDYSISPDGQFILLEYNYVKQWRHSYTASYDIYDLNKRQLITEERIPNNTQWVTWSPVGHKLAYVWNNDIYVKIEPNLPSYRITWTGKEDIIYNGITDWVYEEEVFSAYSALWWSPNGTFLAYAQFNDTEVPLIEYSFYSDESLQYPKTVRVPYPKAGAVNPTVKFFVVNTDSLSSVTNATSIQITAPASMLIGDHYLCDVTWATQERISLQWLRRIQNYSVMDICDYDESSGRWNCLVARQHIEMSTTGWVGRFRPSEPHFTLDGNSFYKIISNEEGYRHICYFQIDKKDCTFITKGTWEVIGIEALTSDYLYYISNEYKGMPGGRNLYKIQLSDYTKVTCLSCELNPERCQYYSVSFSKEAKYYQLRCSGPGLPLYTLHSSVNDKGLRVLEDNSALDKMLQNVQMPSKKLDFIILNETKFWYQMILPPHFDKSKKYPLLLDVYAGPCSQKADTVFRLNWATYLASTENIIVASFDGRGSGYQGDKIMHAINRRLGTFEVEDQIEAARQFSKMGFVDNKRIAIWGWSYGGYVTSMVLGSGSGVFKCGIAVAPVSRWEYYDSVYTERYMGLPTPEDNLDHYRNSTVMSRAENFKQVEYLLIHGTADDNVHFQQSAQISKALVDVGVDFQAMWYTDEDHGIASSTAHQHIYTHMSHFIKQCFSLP

Compound | inhibition at 10 µM | % Inhib at 10 uM
N[C@@H](CCN1CCCC(c2ccccc2)C1)Cc1cc(F)c(F)cc1F (stereo partly drawn) [Compound 1, (R)-3-(3-Phenyl-piperidin-1-yl)-1-(2,4,5-trifluoro-benzyl)-propylamine] | 99.9% | –
COc1ccc(C2CCCN(CC[C@H](N)Cc3cc(F)c(F)cc3F)C2)cc1 (stereo partly drawn) [Compound 2, (R)-3-[3-(4-Methoxy-phenyl)-piperidin-1-yl]-1-(2,4,5-trifluoro-benzyl)-propylamine] | 99.5% | –
COc1cccc(C2CCCN(CC[C@H](N)Cc3cc(F)c(F)cc3F)C2)c1 (stereo partly drawn) [Compound 3, (R)-3-[3-(3-Methoxy-phenyl)-piperidin-1-yl]-1-(2,4,5-trifluoro-benzyl)-propylamine] | 97.9% | –
COc1ccccc1C1CCCN(CC[C@H](N)Cc2cc(F)c(F)cc2F)C1 (stereo partly drawn) [Compound 4, (R)-3-[3-(2-Methoxy-phenyl)-piperidin-1-yl]-1-(2,4,5-trifluoro-benzyl)-propylamine] | 98.9% | –
N[C@@H](CCN1CCCC(c2ccc(C(F)(F)F)cc2)C1)Cc1cc(F)c(F)cc1F (stereo partly drawn) [Compound 5, (R)-1-(2,4,5-Trifluoro-benzyl)-3-[3-(4-trifluoromethyl-phenyl)-piperidin-1-yl]-propylamine] | 99.3% | –
N[C@@H](CCN1CCCC(c2cccc(C(F)(F)F)c2)C1)Cc1cc(F)c(F)cc1F (stereo partly drawn) [Compound 6, (R)-1-(2,4,5-Trifluoro-benzyl)-3-[3-(3-trifluoromethyl-phenyl)-piperidin-1-yl]-propylamine] | 98.9% | –
N[C@@H](CCN1CCCC(c2ccccc2C(F)(F)F)C1)Cc1cc(F)c(F)cc1F (stereo partly drawn) [Compound 7, (R)-1-(2,4,5-Trifluoro-benzyl)-3-[3-(2-trifluoromethyl-phenyl)-piperidin-1-yl]-propylamine] | 98.3% | –
Cc1ccc(C2CCCN(CC[C@H](N)Cc3cc(F)c(F)cc3F)C2)cc1 (stereo partly drawn) [Compound 8, (R)-3-(3-p-Tolyl-piperidin-1-yl)-1-(2,4,5-trifluoro-benzyl)-propylamine] | 99.6% | –
Cc1cccc(C2CCCN(CC[C@H](N)Cc3cc(F)c(F)cc3F)C2)c1 (stereo partly drawn) [Compound 9, (R)-3-(3-m-Tolyl-piperidin-1-yl)-1-(2,4,5-trifluoro-benzyl)-propylamine] | 99.7% | –
Cc1ccccc1C1CCCN(CC[C@H](N)Cc2cc(F)c(F)cc2F)C1 (stereo partly drawn) [Compound 10, (R)-3-(3-o-Tolyl-piperidin-1-yl)-1-(2,4,5-trifluoro-benzyl)-propylamine] | 99.4% | –
N[C@@H](CCN1CCCC(c2ccc(F)cc2)C1)Cc1cc(F)c(F)cc1F (stereo partly drawn) [Compound 11, (R)-3-[3-(4-Fluoro-phenyl)-piperidin-1-yl]-1-(2,4,5-trifluoro-benzyl)-propylamine] | 99.6% | –
N[C@@H](CCN1CCCC(c2cccc(F)c2)C1)Cc1cc(F)c(F)cc1F (stereo partly drawn) [Compound 12, (R)-3-[3-(3-Fluoro-phenyl)-piperidin-1-yl]-1-(2,4,5-trifluoro-benzyl)-propylamine] | 99.7% | –
N[C@@H](CCN1CCC(c2ccccc2)C1)Cc1cc(F)c(F)cc1F (stereo partly drawn) [Compound 14, (R)-3-(3-Phenyl-pyrrolidin-1-yl)-1-(2,4,5-trifluoro-benzyl)-propylamine] | 99.6% | –
N[C@@H](CCN1CCC(c2cccc(Cl)c2)C1)Cc1cc(F)c(F)cc1F (stereo partly drawn) [Compound 15, (R)-3-[3-(3-Chloro-phenyl)-pyrrolidin-1-yl]-1-(2,4,5-trifluoro-benzyl)-propylamine] | 99.3% | –
N[C@@H](CCN1CCC(c2ccccc2Cl)C1)Cc1cc(F)c(F)cc1F (stereo partly drawn) [Compound 16, (R)-3-[3-(2-Chloro-phenyl)-pyrrolidin-1-yl]-1-(2,4,5-trifluoro-benzyl)-propylamine] | 99.5% | –
COc1ccc(C2CCN(CC[C@H](N)Cc3cc(F)c(F)cc3F)C2)cc1 (stereo partly drawn) [Compound 17, (R)-3-[3-(4-Methoxy-phenyl)-pyrrolidin-1-yl]-1-(2,4,5-trifluoro-benzyl)-propylamine] | 98.4% | –
COc1cccc(C2CCN(CC[C@H](N)Cc3cc(F)c(F)cc3F)C2)c1 (stereo partly drawn) [Compound 18, (R)-3-[3-(3-Methoxy-phenyl)-pyrrolidin-1-yl]-1-(2,4,5-trifluoro-benzyl)-propylamine] | 99.2% | –
COc1ccccc1C1CCN(CC[C@H](N)Cc2cc(F)c(F)cc2F)C1 (stereo partly drawn) [Compound 19, (R)-3-[3-(2-Methoxy-phenyl)-pyrrolidin-1-yl]-1-(2,4,5-trifluoro-benzyl)-propylamine] | 99.2% | –
N[C@@H](CCN1CCC(c2ccc(C(F)(F)F)cc2)C1)Cc1cc(F)c(F)cc1F (stereo partly drawn) [Compound 20, (R)-1-(2,4,5-Trifluoro-benzyl)-3-[3-(4-trifluoromethyl-phenyl)-pyrrolidin-1-yl]-propylamine] | 99.1% | –
N[C@@H](CCN1CCC(c2ccc(F)cc2)C1)Cc1cc(F)c(F)cc1F (stereo partly drawn) [Compound 21, (R)-3-[3-(4-Fluoro-phenyl)-pyrrolidin-1-yl]-1-(2,4,5-trifluoro-benzyl)-propylamine] | 99.6% | –
N[C@@H](CCN1CCC(c2cccc(F)c2)C1)Cc1cc(F)c(F)cc1F (stereo partly drawn) [Compound 22, (R)-3-[3-(3-Fluoro-phenyl)-pyrrolidin-1-yl]-1-(2,4,5-trifluoro-benzyl)-propylamine] | 99.6% | –
N[C@@H](CCN1CCC(c2ccccc2F)C1)Cc1cc(F)c(F)cc1F (stereo partly drawn) [Compound 23, (R)-3-[3-(2-Fluoro-phenyl)-pyrrolidin-1-yl]-1-(2,4,5-trifluoro-benzyl)-propylamine] | 99.5% | –
N[C@@H](CCN1CCCCC1)Cc1cc(F)c(F)cc1F [Compound 24, (R)-3-Piperidin-1-yl-1-(2,4,5-trifluoro-benzyl)-propylamine] | 99.3% | –
CC1CCCN(CC[C@H](N)Cc2cc(F)c(F)cc2F)C1 (stereo partly drawn) [Compound 25, (R)-3-(3-Methyl-piperidin-1-yl)-1-(2,4,5-trifluoro-benzyl)-propylamine] | 98.6% | –
COCC1CCCN(CC[C@H](N)Cc2cc(F)c(F)cc2F)C1 (stereo partly drawn) [Compound 26, (R)-3-(3-Methoxymethyl-piperidin-1-yl)-1-(2,4,5-trifluoro-benzyl)-propylamine] | 99.5% | –
N[C@@H](CCN1CCCC(c2ccc3c(c2)OCO3)C1)Cc1cc(F)c(F)cc1F (stereo partly drawn) [Compound 27, (R)-3-(3-Benzo[1,3]dioxol-5-yl-piperidin-1-yl)-1-(2,4,5-trifluoro-benzyl)-propylamine] | 99.7% | –
N[C@@H](CCN1CCCC1)Cc1cc(F)c(F)cc1F [Compound 28, (R)-3-Pyrrolidin-1-yl-1-(2,4,5-trifluoro-benzyl)-propylamine] | 99.1% | –
N[C@@H](CCN1CC[C@H](c2ccc(F)cc2)C1)Cc1cc(F)c(F)cc1F [Compound 29] | – | 99.4%
